Tests used:
ICAM-1 and VCAM-1 [1] = assay: ICAM-1 and VCAM-1 on TNF-α-stimulated HUVECs by flow cytometry; assay type: cell-based, human; settings: CV122 50 µM 3 h, TNF-α 20 ng mL−1 1 h
Procedure: (§1) Each group of mice was euthanized 24 h after LPS injection, spleens were harvested, red blood cells were lysed to detect splenocyte apoptosis, and the ratio of CD3^+CD4^+ T cells, CD3^+CD8^+ T cells, CD3^−CD19^+ B cells in spleen cells and lymph nodes quantified. Antibodies were: FITC‐Annexin V and PI; APC‐CD3, FITC‐CD4, PE‐CD8a, and PE‐CD19. Each group of mice was euthanized 12 h after LPS injection, Lung, kidney, and spleens were harvested, red blood cells were lysed to detect the ratio of macrophages in multiple organs, Antibodies were: FITC anti‐mouse F4/80; APC anti‐mouse CD86. Flow cytometry was used to quantify the adhesion molecules ICAM‐1 and VCAM‐1 on the surface of RAW264.7 cells and HUVECs. CV122 (50 µM) was incubated with the cells for 3 h, LPS (5 µg mL^−1) and TNF‐α (20 ng mL^−1) were used to stimulate the cells for 1 h, and the cells were collected. FITC anti‐mouse CD54 antibody and AF647 anti‐mouse CD106 antibody were incubated for 30 min at room temperature in the dark, PBS was added at 1000 rpm, and the cells were centrifuged for 7 min. A 200‐mesh copper mesh was used to filter the cells into a flow cytometer, and a flow cytometer (BD Biosciences) was used for detection.

LPS-induced septic mice [2] = settings: mouse, in vivo
CLP-induced septic mice = settings: mouse, in vivo
LPS-induced septic mice [3] = assay: LPS-induced sepsis mouse model, survival; assay type: in vivo; settings: LPS group 0%
Procedure: For LPS‐induced sepsis model experiments, 25 male C57BL/6J mice, 6–8 weeks old, weighing 20–25 g, were randomly divided into five groups (n = 5 in each group), and survival was examined. The abdominal cavity was injected with 40 mg kg^−1 LPS to induce sepsis. 30 min later, mice in group 1 were injected subcutaneously with 0.9% NaCl, mice in groups 2–4 were injected subcutaneously with CV122 (20 mg kg^−1), CV122 (30 mg kg^−1), and CV122 (40 mg kg^−1), respectively, and mice in group 5 were injected subcutaneously with Suramin (40 mg kg^−1). The status of the mice was observed and recorded every day.

HPA [4] = assay: HPA levels in LPS-stimulated RAW264.7 macrophages (immunofluorescence, western blotting); assay type: cell-based, mouse; settings: CV122 50 µM 3 h, then LPS 5 µg mL−1 1 h
Procedure: (§2) Lungs were harvested from LPS‐induced and CLP‐induced sepsis model mice, and frozen sections were prepared. HUVECs and RAW264.7 macrophages were incubated with CV122 for 3 h, and TNF‐α (20 ng mL^−1) and LPS (5 µg mL^−1) were used to stimulate cells for 1 h. Lung tissue, HUVECs, and RAW264.7 macrophages were fixed with 4% paraformaldehyde for 10 min before permeabilization with 0.5% Triton X‐100 for 10 min. The membrane was sealed with 4% skimmed milk powder and incubated at room temperature for 50 min. Primary antibodies were rabbit anti‐heparanase polyclonal antibodies overnight at 4 °C. The diluent of the secondary antibody FITC‐WGA‐lectin was kept at room temperature and protected from light for 1 h. Nuclei were stained with DAPI. After 120 s, images were acquired with a confocal microscope (LSM 800, Zeiss, Germany).
(§3) CV122 (50 µM) was incubated with HUVECs and RAW264.7 cells for 3 h, and LPS (5 µg mL^−1) and TNF‐α (20 ng mL^−1) were incubated for 1 h. Total protein was extracted with RIPA tissue/cell lysate solution. Lung tissues were collected and homogenized in cold RIPA buffer to obtain proteins. The BCA method was used to quantify protein. After full denaturing, proteins were separated by 10% SDS‐PAGE and transferred to PVDF membrane. […] Blots were developed with a chemiluminescent HRP substrate, and the protein bands were detected with a chemiluminescence imager (MiniChemi610).

HPA [5] = assay: HPA expression in TNF-α-stimulated HUVECs (immunofluorescence, western blotting); assay type: cell-based, human; settings: CV122 50 µM 3 h, then TNF-α 20 ng mL−1 1 h
Procedure: as §2, §3

ICAM-1 and VCAM-1 [6] = assay: ICAM-1 and VCAM-1 on LPS-stimulated RAW264.7 macrophages by flow cytometry; assay type: cell-based, mouse; settings: CV122 50 µM 3 h, LPS 5 µg mL−1 1 h
Procedure: as §1

LPS-induced septic mice [7] = assay: Treadmill vitality test of LPS-induced septic mice; assay type: in vivo, mouse; settings: LPS-treated mice
Description: To further assess the protective effect of CV122 in LPS‐induced septic mice, we assessed the vitality of the mice with or without CV122 treatment by treadmill (Figure 2I).

## COC1OC(COS(=O)(=O)O)C(OC2OC(C(=O)O)C(OC3OC(COS(=O)(=O)O)C(OC4OC(C(=O)O)C(OC5OC(COS(=O)(=O)O)C(O)C(O)C5NS(=O)(=O)O)C(OS(=O)(=O)O)C4O)C(OS(=O)(=O)O)C3NS(=O)(=O)O)C(O)C2OS(=O)(=O)O)C(O)C1NS(=O)(=O)O (centres unmarked) [CV122]
ICAM-1 and VCAM-1 [1]
  ICAM-1 and VCAM-1 expression: reversed after CV122 treatment
LPS-induced septic mice [2]
  AST, ALT, BUN in serum and MPO in lung tissue: returned to normal upon CV122 treatment, which was more effective than Suramin
  kidney damage (H&E): resolved by CV122
  liver damage (H&E): significantly improved by CV122
  lung inflammation by micro-CT imaging: almost completely inhibit this progress
  lung pathological damage (H&E): significantly improved by CV122 administration
  lung weight/body weight ratio: significantly decreased
  lung wet–dry weight ratio: extremely significantly decreased
  spleen pathological changes (H&E): no pathological changes were observed in spleen tissue
CLP-induced septic mice
  HPA levels in the lungs: significantly reduced the HPA levels in the lungs
  TNF-α, IL-6 and IL-1β in serum and lungs: reduced the level
  body weight course: gradually normalized the septic mice
  cell surface glycocalyx in lungs (WGA): protected cell surface glycocalyx
  lung pathological damage (HE): significantly rescued
CLP-induced septic mice; sc
  survival rate: 80%
LPS-induced septic mice [3]; 20 mg kg−1 s.c. 30 min after LPS 40 mg kg−1 i.p.
  survival rate: 60%
LPS-induced septic mice [3]; 40 mg kg−1 s.c. 30 min after LPS 40 mg kg−1 i.p., 80 h or longer observation
  survival rate: 100%
HPA [4]
  HPA levels in macrophages: significantly inhibited HPA levels following LPS stimulation of macrophages
HPA [5]
  HPA expression in HUVECs: significantly inhibited HPA expression in HUVECs
ICAM-1 and VCAM-1 [6]
  ICAM-1 and VCAM-1 expression: reversed after CV122 treatment
LPS-induced septic mice [7]
  electric shocks needed in the first 100 m: reduced the electric shocks needed in the first 100 m
  running distance and time to exhaustion: significantly increased the running distance and extended the time to exhaustion
  total electric shocks until exhaustion: obviously increased the total electric shocks until exhaustion

Source: PMC11304236, “A Novel Drug Candidate for Sepsis Targeting Heparanase by Inhibiting Cytokine Storm” (Advanced Science, 2024)
